Measurements reported in ChEMBL document CHEMBL1201862, “PubChem BioAssay data set” (2004).
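48-hour exposure; five concentrations; linearly interpolated endpoints. Here, GI50 denotes the concentration required for 50% inhibition of growth.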 The source made the active and inactive calls. Rule as the data show it: active = GI50 up to about 1.1 µM and inactive = higher.

Experiments:
Test in all cases: growth of human tumour cells (NCI), 48 h
[1] = system: UACC-257
[2] = system: NCI/ADR-RES
[3] = system: DU-145
[4] = system: HT-29
[5] = system: COLO 205
[6] = system: K562
[7] = system: SF-295
[8] = system: IGROV-1
[9] = system: A498
[10] = system: HL-60
[11] = system: HCC 2998
[12] = system: SR
[13] = system: HOP-92
[14] = system: TK-10
[15] = system: 786-0
[16] = system: A549
[17] = system: CAKI-1
[18] = system: UO-31
[19] = system: RPMI-8226
[20] = system: RXF 393

With O=C(O)COc1cc(-c2ccccc2)nc2cc(F)ccc12 the GI50 [1] was > 100 µM (inactive), the GI50 [2] was > 100 µM (inactive) and the GI50 [3] was > 100 µM (inactive). For the same molecule, the GI50 [4] was > 100 µM (inactive), the GI50 [5] was > 100 µM (inactive) and the GI50 [6] was > 100 µM (inactive). For the same molecule, the GI50 [7] was > 100 µM (inactive), the GI50 [8] was > 100 µM (inactive) and the GI50 [9] was > 100 µM (inactive). The GI50 [10] was > 100 µM (inactive), the GI50 [11] was 60 µM (inactive) and the GI50 [12] was > 100 µM (inactive). The GI50 [13] was > 100 µM (inactive), the GI50 [14] was 0.375 µM (active) and the GI50 [15] was > 100 µM (inactive). The GI50 [16] was > 100 µM (inactive), the GI50 [17] was > 100 µM (inactive) and the GI50 [18] was 64.7 µM (inactive). For the same molecule, the GI50 [19] was > 100 µM (inactive).
In the case of Cc1nc2cc([N+](=O)[O-])ccc2c(NCCCN(C)C)c1C, the GI50 [1] is reported as 5.45 µM (inactive), the GI50 [2] is reported as 16.3 µM (inactive) and the GI50 [3] is reported as 21.7 µM (inactive). For the same molecule, the GI50 [4] was 2.76 µM (inactive), the GI50 [5] was 2.56 µM (inactive) and the GI50 [6] was 3.77 µM (inactive). The GI50 [7] was 17.3 µM (inactive), the GI50 [8] was 3.22 µM (inactive) and the GI50 [9] was 14.9 µM (inactive). The GI50 [10] was 28.8 µM (inactive), the GI50 [12] was 4.45 µM (inactive) and the GI50 [13] was 1.95 µM (inactive). For the same molecule, the GI50 [14] was 23.5 µM (inactive), the GI50 [15] was 10.4 µM (inactive) and the GI50 [16] was 6.21 µM (inactive). For the same molecule, the GI50 [20] was 11.1 µM (inactive), the GI50 [17] was 20.3 µM (inactive) and the GI50 [18] was 14.7 µM (inactive). For the same molecule, the GI50 [19] was 12.9 µM (inactive).
COc1c2c(cc3oc(C)cc(=O)c13)OC(=N)C(C(N)=O)C2CC(=O)c1ccc(N)cc1 (configuration not stated) was tested, and the GI50 [1] was > 100 µM (inactive), the GI50 [2] was > 100 µM (inactive) and the GI50 [3] was > 100 µM (inactive). For the same molecule, the GI50 [5] was > 100 µM (inactive), the GI50 [6] was > 100 µM (inactive) and the GI50 [7] was > 100 µM (inactive). The GI50 [8] was > 100 µM (inactive), the GI50 [9] was > 100 µM (inactive) and the GI50 [10] was > 100 µM (inactive). For the same molecule, the GI50 [11] was > 100 µM (inactive), the GI50 [12] was > 100 µM (inactive) and the GI50 [13] was > 100 µM (inactive). For the same molecule, the GI50 [14] was > 100 µM (inactive), the GI50 [15] was > 100 µM (inactive) and the GI50 [16] was > 100 µM (inactive). For the same molecule, the GI50 [20] was > 100 µM (inactive), the GI50 [17] was > 100 µM (inactive) and the GI50 [18] was > 100 µM (inactive). The GI50 [19] was > 100 µM (inactive).
CN(C)/C=C(\C(=O)c1ccccc1)n1nc(-c2ccccc2)cc1-c1ccccc1 was tested, and the GI50 [1] was > 10 µM (inactive), the GI50 [2] was > 10 µM (inactive) and the GI50 [3] was > 10 µM (inactive). For the same molecule, the GI50 [4] was > 10 µM (inactive), the GI50 [5] was > 10 µM (inactive) and the GI50 [7] was > 10 µM (inactive). For the same molecule, the GI50 [8] was > 10 µM (inactive), the GI50 [9] was > 10 µM (inactive) and the GI50 [10] was > 10 µM (inactive). For the same molecule, the GI50 [11] was > 10 µM (inactive), the GI50 [12] was > 10 µM (inactive) and the GI50 [13] was 7.38 µM (inactive). For the same molecule, the GI50 [14] was > 10 µM (inactive), the GI50 [15] was > 10 µM (inactive) and the GI50 [16] was > 10 µM (inactive). For the same molecule, the GI50 [20] was > 10 µM (inactive), the GI50 [17] was > 10 µM (inactive) and the GI50 [19] was > 10 µM (inactive).
In the case of N#CCCN(CCC#N)c1ccc(C(=N/c2ccc(F)cc2)/N=N/c2ccccc2)cc1, the GI50 [1] is reported as 60.5 µM (inactive), the GI50 [2] is reported as > 100 µM (inactive) and the GI50 [3] is reported as > 100 µM (inactive). For the same molecule, the GI50 [4] was > 100 µM (inactive), the GI50 [5] was > 100 µM (inactive) and the GI50 [6] was > 100 µM (inactive). The GI50 [7] was 32.8 µM (inactive), the GI50 [8] was > 100 µM (inactive) and the GI50 [9] was > 100 µM (inactive). For the same molecule, the GI50 [11] was > 100 µM (inactive), the GI50 [12] was 33 µM (inactive) and the GI50 [13] was > 100 µM (inactive). The GI50 [14] was > 100 µM (inactive), the GI50 [15] was > 100 µM (inactive) and the GI50 [16] was 37.8 µM (inactive). For the same molecule, the GI50 [20] was 2.67 µM (inactive), the GI50 [17] was > 100 µM (inactive) and the GI50 [18] was > 100 µM (inactive). The GI50 [19] was > 100 µM (inactive).
For COc1ccc2c(c1)-c1nc(=S)n(CCN(C)C)c3ccc([N+](=O)[O-])c(c13)N2, the GI50 [1] was 1 µM (active), the GI50 [2] was 1.09 µM (active) and the GI50 [3] was 0.923 µM (active). The GI50 [4] was 0.498 µM (active), the GI50 [5] was 0.865 µM (active) and the GI50 [6] was 0.389 µM (active). For the same molecule, the GI50 [7] was 0.794 µM (active), the GI50 [8] was 0.832 µM (active) and the GI50 [9] was 8.13 µM (inactive). For the same molecule, the GI50 [11] was 0.809 µM (active), the GI50 [12] was 0.419 µM (active) and the GI50 [13] was 6.61 µM (inactive). For the same molecule, the GI50 [14] was 1.07 µM (active), the GI50 [15] was 0.462 µM (active) and the GI50 [16] was 0.515 µM (active). The GI50 [20] was 1.1 µM (active), the GI50 [17] was 1.49 µM (inactive) and the GI50 [18] was 0.794 µM (active). For the same molecule, the GI50 [19] was 0.573 µM (active).
With CC(C)(C(=O)N(C(=O)N1CCN(c2ccccc2)CC1)S(=O)(=O)c1ccccc1)c1ccc(Cl)cc1 the GI50 [1] was 46.7 µM (inactive), the GI50 [2] was 6.92 µM (inactive) and the GI50 [3] was 58.5 µM (inactive). The GI50 [4] was 21.4 µM (inactive), the GI50 [5] was 20.7 µM (inactive) and the GI50 [6] was 5.68 µM (inactive). The GI50 [7] was 8.63 µM (inactive), the GI50 [9] was 18.6 µM (inactive) and the GI50 [10] was 24.8 µM (inactive). For the same molecule, the GI50 [11] was 27.7 µM (inactive), the GI50 [12] was 22.8 µM (inactive) and the GI50 [13] was 5.43 µM (inactive). For the same molecule, the GI50 [14] was 61.4 µM (inactive), the GI50 [15] was 55.2 µM (inactive) and the GI50 [16] was 33.7 µM (inactive). The GI50 [20] was > 100 µM (inactive), the GI50 [17] was 34.4 µM (inactive) and the GI50 [18] was 15.3 µM (inactive). For the same molecule, the GI50 [19] was 6.95 µM (inactive).
